We go through two compounds from patent US6433003B1 (priority 1999, dated 2002).

Data set [1] concerns hyperhidrosis. The following applies: in vivo; cited from earlier work.
For data set [2], the system named is hyperhidrosis. The following applies: human, in vivo.
Data set [3] deals with gustatory sweating associated with diabetic autonomic neuropathy. The following applies: in vivo; cited from earlier work.
The conditions of data set [4]: in vivo; cited from earlier work.
For data set [5], the system named is hyperhidrosis. The following applies: in vivo; cited from earlier work. The source holds these as a separate data set.

Regarding `C[N+]1(C)CCC(OC(=O)C(O)(c2ccccc2)C2CCCC2)C1.[Br-]` (centres unmarked) [glycopyrrolate], in the data set on hyperhidrosis [1], the “duration of reduction of the hyperhidrosis” value is reported as “up to 4 weeks” and the side effects result was “abdominal discomfort”. Also, in the data set on hyperhidrosis [2], the “perspiration associated with the hyperhidrosis” value is “reduction in the perspiration” and the “unwanted perspiration at the location where the glycopyrrolate is applied” value is “reduces the unwanted perspiration”. The gustatory sweating entry in data set [3] is given as “prevented the gustatory sweating”. In addition, the side effects result in data set [4] was “few side effects”.

Take botulinum A neurotoxin [BOTOX]: in the data set on hyperhidrosis [5], the benefit in hyperhidrosis entry was “statistically significant benefit” and the duration of effect result is “several months”.
